By Ki is commonly meant the equilibrium dissociation constant of an inhibitor or competing ligand from its target.

Experimental findings from BindingDB's records for doi:10.1021/jm3012917 (Philipps University Marburg, 2013) are described below.

For the assay, the target named is Coagulation factor VII (Homo sapiens) (UniProt P08709). Nature of the assay: Inhibition of human FVIIa.
Chain of Coagulation factor VII (Homo sapiens) (P08709 whole entry, looked up): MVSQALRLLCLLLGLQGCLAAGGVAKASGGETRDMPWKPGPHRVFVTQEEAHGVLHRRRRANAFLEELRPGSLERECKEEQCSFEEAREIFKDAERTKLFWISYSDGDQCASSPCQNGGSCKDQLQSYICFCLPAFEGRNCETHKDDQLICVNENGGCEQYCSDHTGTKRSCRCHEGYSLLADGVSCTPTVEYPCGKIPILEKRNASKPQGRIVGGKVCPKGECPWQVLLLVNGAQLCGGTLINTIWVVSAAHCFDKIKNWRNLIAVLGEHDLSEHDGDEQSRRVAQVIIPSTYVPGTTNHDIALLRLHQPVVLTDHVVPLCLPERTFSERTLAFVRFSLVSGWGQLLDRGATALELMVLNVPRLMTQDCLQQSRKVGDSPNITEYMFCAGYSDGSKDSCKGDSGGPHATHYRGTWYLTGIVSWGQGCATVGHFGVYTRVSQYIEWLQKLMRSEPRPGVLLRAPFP

As for `N=C(N)c1ccc(CNC(=O)[C@@H]2Cc3ccc(cc3)NC(=O)CCN3CCN(CCC(=O)Nc4ccc(cc4)C[C@@H](NS(=O)(=O)Cc4ccccc4)C(=O)N2)CC3)cc1`, the Ki was above 50 µM.

Regarding `N=C(N)c1ccc(CNC(=O)[C@@H]2Cc3ccc(cc3)NC(=O)CN3CCN(CC3)CC(=O)Nc3ccc(cc3)C[C@@H](NS(=O)(=O)Cc3ccccc3)C(=O)N2)cc1`, the Ki is above 30 µM.
